Where two headings read alike, the source gives them in different places.
What was measured:
[1] = tested on: Mitochondrial Membrane Potential; experiment: cells; settings: for SR (MMP inhibition): specificity ratio; for EC10, linear: linear model
Text: (§1) All bioassay media components and the ERα-UAS-bla GripTite and PPARγ-UAS-bla cells were obtained from Thermo Fisher Scientific (Waltham, MA, USA). AREc32 reporter gene cells based on MCF7 were provided by C. Roland Wolf (Cancer Research UK); AhR CALUX cells (H4L7.5c2 derived from H4IIe) were provided by Michael Denison (UC Davis, USA); and SH-SY5Y cells were purchased from Sigma-Aldrich.
(§2) Cell culture conditions and bioassay protocols including response detection are provided in Text S2.1–2.4 and Table S3. − Cell viability was determined from cell confluency using an IncuCyte S3 Live-Cell Analysis System (Sartorius AG, Essen, Germany) before and after exposure, except for SH-SY5Y cells (live–dead staining with Nuclear Green LcS1 and propidium iodide, Abcam, UK). For metabolic activation experiments, cell viability was assessed using the ToxBLAzer DualScreen Kit (Thermo Fisher Scientific) to capture the remaining toxicity in ERα-UAS-bla GripTite after treatment with the aCYP catalyst (details in Text S2.4).
(§3) For ARE, the concentration that triggered an induction ratio of 1.5 (ECIR1.5) was used as the benchmark value, as detailed in Text S2.5. IC10 values also served as a threshold for data analysis in all assays; only concentrations below IC10 were considered when deriving EC10 or ECIR1.5. […]
(§4) S2: Cell culture and bioassays
(§5) S2.1: Cell Culturing Conditions
All suppliers and sources are given in detail in SI-Excel S3. The bioassay media for the different assays were prepared as follows: Assay medium for ER alpha-UAS-bla GripTite (ERα) and […]
2% charcoal-stripped FBS, and 100 U/mL penicillin-streptomycin. MitoOxTox and AhR assay medium was comprised of 90% DMEM with GlutaMAX, supplemented with 10% FBS, and 100 U/mL penicillin-streptomycin. […]
S2.2: Cell Seeding and Incubation. For all bioassays, cell suspensions in the respective assay medium were dispensed into each well of 384-well plates using a MultiFlo Dispenser (Biotek, (now Agilent), Winooski, VT, U.S.). After seeding, the plates were incubated at 37° C and 5% CO₂ for […]. The final cell densities and plate types were as follows: Black poly-D-lysine […]
(§6) 6500 cells/well, ERα: 5000 cells/well. White 384-well plates with a clear bottom (Product No.
NYC, U.S.) for AhR: 3250 cells/well. Black Collagen I coated plates were used (Product No.
S2.3: Chemical Dosing and Assay Analysis Procedures. The dosing procedure and high-throughput assay workflow have been described in detail before. 9 The dosing concentrations […]
Stock solutions were then either

SH-SY5Y cells = experiment: cells; settings: for EC10: Homo sapiens, SH-SY5Y; for Specificity ratio (SRbaseline) SRNOI: against baseline cytotoxicity; for Relative effect potency REPNOI: relative to BPA; for EC10, linear: linear model;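 as to Relative effect potency REPNOI: EC10 of BPA divided by EC10 of the test compound so values above 1 mean more potent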;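 as to Specificity ratio (SRbaseline) SRNOI: ratio of predicted baseline cytotoxicity IC10 to the neurite outgrowth inhibition EC10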
Text: as §1, §2, §3, §4, §5
(§7) All suppliers and sources are given in detail in SI-Excel S3. The bioassay media for the different assays were prepared as follows: Assay medium for ER alpha-UAS-bla GripTite (ERα) and PPAR gamma-UAS-bla 293H (PPARγ) was prepared with 98% Opti-MEM, supplemented with 2% charcoal-stripped FBS, and 100 U/mL penicillin-streptomycin. MitoOxTox and AhR assay medium was comprised of 90% DMEM with GlutaMAX, supplemented with 10% FBS, and 100 U/mL penicillin-streptomycin. Neurotoxicity assay medium consisted of the neurobasal […]
(§8) (1 picture or pasted object on this page, not shown here) […]
(§9) medium, supplemented with 2% B-27 Supplement and 2 mM GlutaMAX Supplement. SH - SY5Y cells were differentiated with 10 µM all-trans retinoic acid prior to the assay.
(§10) S2.2: Cell Seeding and Incubation. For all bioassays, cell suspensions in the respective assay medium were dispensed into each well of 384-well plates using a MultiFlo Dispenser (Biotek, (now Agilent), Winooski, VT, U.S.). After seeding, the plates were incubated at 37° C and 5% CO₂ for […]. The final cell densities and plate types were as follows: Black poly-D-lysine coated 384-well plates (Product No. 354663, Corning Inc., NYC, U.S.) were used for PPARγ:
as §6
(§11) 781098, Greiner, Kremsmünster, Austria) were utilized for the MitoOxTox assay: 2650

[2] = tested on: Antioxidant response element; experiment: MitoOxTox: oxidative stress response in AREc32; settings: for logEC10: log-logistic model fit
Text: as §1, §2, §3, §4, §5, §7, §8, §9, §10, §6, §11

[3] = Acidity constant (pKa) measurement, Sirius T3 UV-metric, and speciation at pH 7.4; settings: for Negative form (pH = 7.40) / Neutral form (pH = 7.40) / αneutral % (fraction of neutral species) / Double negative form (pH = 7.40): from experimental pKa; for αneutral % (fraction of neutral species): pH 7.4; for pKa: phosphate buffer with […] KCl, Sirius T3 titrator, pKa (Acid), experimental, this study
Experimental: Physicochemical properties provide input parameters for the baseline toxicity model. Acidity constants (pK a) and octanol–water partition constants of the neutral species (K ow) were measured with a Sirius T instrument from Pion Inc. (Sussex, UK) (Text S1.2 and Table S1). A detailed description of the pK a and K ow measurements can be found in literature. , […]
S1.2: pKa and log Kow measurements […]
titrator (Pion Inc., Sussex, U.K.). A detailed description of the experimental procedure is available in the literature.1 In brief, each sample was prepared by mixing 5 µL of a 10 mM dimethyl sulfoxide (DMSO) stock solution with 25 µL of a phosphate buffer solution (14.4 mM […]
A reference vial containing 5 µL of DMSO
(Roth, A994-100 ML) and 25 µL of phosphate buffer was analyzed alongside each sample.
The pKa values were determined using the automated UV-metric pKa protocol within the Sirius T3 Control software (version 2.0.0.0.). Each sample was subjected to three consecutive […]
from 2 to 12 by stepwise addition of 0.5 M HCl or 0.5 M potassium hydroxide while recording […]
UV absorbance. […]
To ensure reproducibility, measurements were conducted on at least two

[4] = Arec32, read-out: EC10, MMP (M)
[5] = Arec32, read-out: EC10, linear transformed
[6] = read-out: EC10, linear transformed

Row | Structure (SMILES) | EC10 ([1]; Arec32, read-out: EC10, MMP) [M] | EC10 [1, 4] [M] | EC10 [1, 5] [M] | EC10 ([1]; Arec32, read-out: logEC10) [M] | SR (MMP inhibition) [1] | EC10 (SH-SY5Y cells; read-out: EC10, NOI) [M] | EC10 (SH-SY5Y cells; read-out: EC10, NOI (M)) [M] | EC10 (SH-SY5Y cells; [6]) [M] | EC10 (SH-SY5Y cells; read-out: logEC10) [M] | Specificity ratio (SRbaseline) SRNOI (SH-SY5Y cells) | Relative effect potency REPNOI (SH-SY5Y cells) | EC10 ([2]; Arec32, read-out: EC10, linear) [µM] | EC10 [2, 5] [µM] | logEC10 ([2]; Bioassay ARE, dosing range all) | Negative form (pH = 7.40) [3] [%] | Neutral form (pH = 7.40) [3] [%] | αneutral % (fraction of neutral species) [3] [%] | pKa [3] | EC10, linear ([1]; MMP bioassay, dosing range all) | EC10, linear (SH-SY5Y cells; NOI bioassay, dosing range all) | also measured
1 | O=S(=O)(c1ccc(O)cc1)c1ccc(OCc2ccccc2)cc1 [BPS-MPE, 4-[4-(benzyloxy)benzenesulfonyl]phenol] | 5.59e-06 | 5.59e-06 | 5.91e-06 | 5.62e-06 | 22 | 0.000247 | 0.000247 | 0.000247 | 0.000245 | 0.11 | 0.21 | 55.7 | 133 | no effect | 32 | 68 | 68 | 7.73 | – | – | EC10 ([1]; Arec32, read-out: EC10, linear): 3.72e-06 M; Specificity ratio (SRbaseline) SRMMP ([1]; against baseline cytotoxicity): 6.33; Specificity ratio (SRcytotoxicity) SRMMP ([1]; against experimental cytotoxicity): 21.99; Relative effect potency REPMMP ([1]; relative to BPA): 5.01; EC10 (SH-SY5Y cells; read-out: EC10, linear): 0.000638 M
2 | Oc1ccc(Sc2ccc(O)cc2)cc1 [BPT, 4,4'-Thiodiphenol] | 1.83e-05 | 1.83e-05 | 1.82e-05 | 1.82e-05 | > 10 | – | – | – | – | – | – | 85.6 | 1500 | masked by cytotoxicity | 4.47 | 96 | 96 | 8.73 | no effect | no effect | logEC10 (SH-SY5Y cells; NOI bioassay, dosing range all, log-logistic model): no effect; Double negative form (pH = 7.40) [3]: 0.0324%; pKa ([3]; second pKa column): 9.54
3 | Cc1ccc(S(=O)(=O)NC(=O)Nc2ccc(Cc3ccc(NC(=O)NS(=O)(=O)c4ccc(C)cc4)cc3)cc2)cc1 [BTUM, 4,4'-Bis(p-tolylsulfonylureido)diphenylmethane] | – | – | – | – | – | 6.48e-05 | 6.48e-05 | 6.48e-05 | 6.46e-05 | 1.03 | 0.78 | – | – | no effect | 0.47 | 0.0007 | 0.0007 | 4.59 | no effect | no effect | logEC10 ([1]; MMP bioassay, dosing range all, log-logistic model): no effect; EC10, linear ([2]; Bioassay ARE, dosing range all, linear model fit): no effect; Double negative form (pH = 7.40) [3]: 99.53%; pKa ([3]; second pKa column): 5.07
